# Test results taken from patent US5925627A, “Use of NK-1 receptor antagonists for treating movement disorders” (Merck Sharp & Dohme Ltd., priority 1996, dated 1999).
# Where two headings read alike, the source gives them in different places.
# Experiments:
# [1] = system: separation-induced vocalisations by guinea-pig pups; assay: animal or person; details: Cavia porcellus, po, 4 h, read-out: guinea-pig vocalisation (4 hr. pre-treatment): ID50
# Experimental: Male and female guinea-pigs pups are housed in family groups with their mothers and littermates throughout the study. Experiments are commenced after weaning when the pups are 2 weeks old. Before entering an experiment, the pups are screened to ensure that a vigorous vocalisation response is reproducibly elicited following maternal separation. The pups are placed individually in an observation cage (55 cm×39 cm×19 cm) in a room physically isolated from the home cage for 15 minutes and the duration of vocalisation during this baseline period is recorded. […] On test days each pup receives an oral dose or an s.c. or i.p. injection of test compound or vehicle and is then immediately returned to the home cage with its mother and siblings for 30 to 60 minutes (or for up to 4 hours following an oral dose, dependent upon the oral pharmacokinetics of the test compound) before social isolation for 15 minutes as described above. […] Between 6 and 8 animals receive each test compound at each dose tested.
# [2] = system: NK-1 receptor (foot tapping induced by NK-1 agonist GR73632); assay: Gerbil Foot-Tapping (Assay 2); type: in vivo, Mongolian gerbil; details: Meriones unguiculatus, iv
# Source text: CNS-penetrant NK-1 receptor antagonists for use in the present invention can be identified by their ability to inhibit foot tapping in gerbils induced by anxiogenic agents (such as pentagastrin) or central infusion of NK-1 receptor agonists such as GR73632, or caused by aversive stimulation such as foot shock or single housing, based on the method of Rupniak & Williams, Eur. J. Pharmacol., 1994, 265, 179.
# Male or female Mongolian gerbils (35-70 g) are anaesthetised by inhalation of an isoflurane/oxygen mixture to permit exposure of the jugular vein in order to permit administration of test compounds or vehicle in an injection volume of 5 ml/kg i.v. Alternatively, test compounds may be administered orally or by subcutaneous or intraperitoneal routes. A skin incision is then made in the midline of the scalp to expose the skull.
compound,measurement,setting,value
"C[C@@H](O[C@H]1OCCN(Cc2n[nH]c(=O)[nH]2)[C@H]1c1ccc(F)cc1)c1cc(C(F)(F)F)cc(C(F)(F)F)c1 [2-(R)-(1-(R)-(3,5-bis(trifluoromethyl)phenyl)-ethoxy)-3-(S)-(4-fluorophenyl)-4-(3-(5-oxo-1H, 4H-1,2,4-triazolo)methyl)-morpholine]",ED50,[1],0.73 mg/kg
same,ED50,"[2]; 5 min, i.v. immediately prior to GR73632 challenge, read-out: gerbil foot-tapping (5 mins.): ID50",0.36 mg/kg
same,ED50,"[2]; 24 hrs., i.v. 24 hours prior to central NK1 agonist challenge, read-out: gerbil foot-tapping (24 hrs.): ID50",0.33 mg/kg
